{"source": "patent US6706267B1", "about": "“Glucosamine and egg for reducing inflammation” (Arkion Life Sciences LLC, priority 1999, dated 2004)", "format_in_all_cases": "in vivo", "key": {"[1]": {"test_system": "established rat adjuvant arthritis", "assay": "Rat established adjuvant arthritis model: paw edema", "conditions": "for % Chg (paw edema vs Control Adjuvant) / Day 14-Mean Paw Edema (ml ± SE) / Day 22-Mean Paw Edema (ml ± SE) / Day 30-Mean Paw Edema (ml ± SE): oral, rat", "description": "(§1) To assess the synergistic antiarthritic effect of Glucosamine hydrochloride and the DCV hyperimmune egg in the established rat adjuvant arthritis, a chronic animal model of inflammation."}, "[2]": {"test_system": "plasma fibrinogen", "assay": "Rat established adjuvant arthritis model: plasma fibrinogen levels", "description": "as §1"}, "[3]": {"test_system": "established rat adjuvant arthritis", "assay": "Rat adjuvant arthritis model: histomorphologic observations, tibiotarsal joint", "parameters": "scale not given here", "conditions": "for Ankylosis (score) / Erosion, Cartliage (score) / Hyperostosis (score) / Inflammation, periarticular (score) / Osteolysis (score) / Pannus, Cartliage (score): Tibiotarsal Joint (H&E); for Erosion, Cartilage (score): Tibiotarsal Joint (PAS)", "description": "as §1"}}, "note": "Marks after values point to notes of the source that are not given here.", "data": [{"smiles": "Cl.N[C@H]1C(O)O[C@H](CO)[C@@H](O)[C@@H]1O", "note": "(some centres unmarked) [GLU-250, Glucosamine hydrochloride]", "values": [{"measurement": "% Chg (paw edema vs Control Adjuvant)", "setting": "[1]; Day 14", "result": "−15", "unit": "%"}, {"measurement": "Day 14-Mean Paw Edema (ml ± SE)", "setting": "[1]; Day 14", "result": "1.1 ± 0.3, n = 7 ml"}, {"measurement": "% Chg (paw edema vs Control Adjuvant)", "setting": "[1]; Day 22", "result": "−16", "unit": "%"}, {"measurement": "Day 22-Mean Paw Edema (ml ± SE)", "setting": "[1]; Day 22", "result": "1.6 ± 0.3, n = 7 ml"}, {"measurement": "% Chg (paw edema vs Control Adjuvant)", "setting": "[1]; Day 30", "result": "+48* %"}, {"measurement": "Day 30-Mean Paw Edema (ml ± SE)", "setting": "[1]; Day 30", "result": "3.1 ± 0.2, n = 5 ml"}, {"measurement": "effect on paw edema, in words", "setting": "[1]; day 30, severe polyarthritis", "result": "ineffectiveness"}, {"measurement": "effect on paw edema, in words", "setting": "[1]; days 14 and 22", "result": "inhibitory effect"}, {"measurement": "% Δ from ctrl (plasma fibrinogen)", "setting": "[2]; Day 16, oral", "result": "+18%"}, {"measurement": "Mean Plasma Fibrinogen Levels (mg/dl ± SE)", "setting": "[2]; Day 16, oral", "result": "735 ± 44", "unit": "mg/dL"}, {"measurement": "% Δ from ctrl (plasma fibrinogen)", "setting": "[2]; Day 23, oral", "result": "−2", "unit": "%"}, {"measurement": "Mean Plasma Fibrinogen Levels (mg/dl ± SE)", "setting": "[2]; Day 23, oral", "result": "803 ± 39", "unit": "mg/dL"}, {"measurement": "% Δ from ctrl (plasma fibrinogen)", "setting": "[2]; Day 30, oral", "result": "−28", "unit": "%"}, {"measurement": "Mean Plasma Fibrinogen Levels (mg/dl ± SE)", "setting": "[2]; Day 30, oral", "result": "487 ± 112", "unit": "mg/dL"}, {"measurement": "Ankylosis (score)", "setting": "[3]; Day 22", "result": 3.5}, {"measurement": "Erosion, Cartliage (score)", "setting": "[3]; Day 22", "result": 2.0}, {"measurement": "Hyperostosis (score)", "setting": "[3]; Day 22", "result": 3.0}, {"measurement": "Inflammation, periarticular (score)", "setting": "[3]; Day 22", "result": 3.5}, {"measurement": "Osteolysis (score)", "setting": "[3]; Day 22", "result": 1.5}, {"measurement": "Pannus, Cartliage (score)", "setting": "[3]; Day 22", "result": 2.0}, {"measurement": "Ankylosis (score)", "setting": "[3]; Day 30", "result": 4.0}, {"measurement": "Erosion, Cartliage (score)", "setting": "[3]; Day 30", "result": 4.0}, {"measurement": "Hyperostosis (score)", "setting": "[3]; Day 30", "result": 3.5}, {"measurement": "Inflammation, periarticular (score)", "setting": "[3]; Day 30", "result": 4.0}, {"measurement": "Osteolysis (score)", "setting": "[3]; Day 30", "result": 3.5}, {"measurement": "Pannus, Cartliage (score)", "setting": "[3]; Day 30", "result": 4.0}, {"measurement": "Erosion, Cartilage (score)", "setting": "[3]; Day 22", "result": 2.0}, {"measurement": "Erosion, Cartilage (score)", "setting": "[3]; Day 30", "result": 4.0}]}, {"smiles": "COc1ccc2c(c1)c(CC(=O)O)c(C)n2C(=O)c1ccc(Cl)cc1", "note": "[Indo, Indomethacin]", "values": [{"measurement": "% Chg (paw edema vs Control Adjuvant)", "setting": "[1]; Day 14", "result": "−8", "unit": "%"}, {"measurement": "Day 14-Mean Paw Edema (ml ± SE)", "setting": "[1]; Day 14", "result": "1.2 ± 0.4, n = 6 ml"}, {"measurement": "% Chg (paw edema vs Control Adjuvant)", "setting": "[1]; Day 22", "result": "−37", "unit": "%"}, {"measurement": "Day 22-Mean Paw Edema (ml ± SE)", "setting": "[1]; Day 22", "result": "1.2 ± 0.1, n = 6 ml"}, {"measurement": "% Chg (paw edema vs Control Adjuvant)", "setting": "[1]; Day 30", "result": "−86* %"}, {"measurement": "Day 30-Mean Paw Edema (ml ± SE)", "setting": "[1]; Day 30", "result": "0.3 ± 0.1, n = 5 ml"}, {"measurement": "% Δ from ctrl (plasma fibrinogen)", "setting": "[2]; Day 23, oral", "result": "−28", "unit": "%"}, {"measurement": "Mean Plasma Fibrinogen Levels (mg/dl ± SE)", "setting": "[2]; Day 23, oral", "result": "617 ± 72", "unit": "mg/dL"}, {"measurement": "% Δ from ctrl (plasma fibrinogen)", "setting": "[2]; Day 30, oral", "result": "−46* %"}, {"measurement": "Mean Plasma Fibrinogen Levels (mg/dl ± SE)", "setting": "[2]; Day 30, oral", "result": "366 ± 48", "unit": "mg/dL"}, {"measurement": "percent inhibition of fibrinogen levels", "setting": "[2]; day 30", "result": 46, "unit": "%"}, {"measurement": "Ankylosis (score)", "setting": "[3]; Day 22", "result": "1.5/1.5"}, {"measurement": "Erosion, Cartliage (score)", "setting": "[3]; Day 22", "result": 1.5}, {"measurement": "Hyperostosis (score)", "setting": "[3]; Day 22", "result": 3.0}, {"measurement": "Inflammation, periarticular (score)", "setting": "[3]; Day 22", "result": "3.5/3.5"}, {"measurement": "Osteolysis (score)", "setting": "[3]; Day 22", "result": 2.5}, {"measurement": "Pannus, Cartliage (score)", "setting": "[3]; Day 22", "result": 1.5}, {"measurement": "Ankylosis (score)", "setting": "[3]; Day 30", "result": "1.5/1.5"}, {"measurement": "Erosion, Cartliage (score)", "setting": "[3]; Day 30", "result": 2.5}, {"measurement": "Hyperostosis (score)", "setting": "[3]; Day 30", "result": 2.0}, {"measurement": "Inflammation, periarticular (score)", "setting": "[3]; Day 30", "result": "3.5/3.5"}, {"measurement": "Osteolysis (score)", "setting": "[3]; Day 30", "result": 1.0}, {"measurement": "Pannus, Cartliage (score)", "setting": "[3]; Day 30", "result": 2.5}, {"measurement": "Erosion, Cartilage (score)", "setting": "[3]; Day 22", "result": 1.5}, {"measurement": "Erosion, Cartilage (score)", "setting": "[3]; Day 30", "result": 2.5}]}]}
